In US20210251963A1, “UREA DERIVATIVES FOR USE IN THE TREATMENT OF SUBJECTS WITH ELEVATED EXPRESSION AND/OR ACTIVITY OF SRPK1” (Scandion Oncology A/S, priority 2018, published 2021):

Legend:
Experiment in all cases: Premier Screen kinase activity screening (33P ATP filter binding)
Type in all cases: biochemical
PKBb = molecular target: T1, PKBb (Homo sapiens, UniProt P31751); details: 10 μM SCO-101, mean of assay duplicates, read-out: Kinase activity (percentage of DMSO control)
T1 construct: MRC in Dundee (screening service)
Source text: (§1) The kinase activity screening was done at MRC in Dundee. The screen was a so-called “Premier Screen” with 140 kinases. More specific information can be found here: http://www.kinase-screen.mrc.ac.uk/services/premier-screen
(§2) The method is based on a radioactive filter binding assay using 33P ATP (Hastie, et al 2006. Nat Protoc. 2006; 1(2):968-71; Bain, et al 2007. Biochem J. 2007 Dec. 15; 408(3):297-315). This method is sensitive, accurate and provides a direct measure of kinase enzyme activity. A concentration of 10 μM SCO-101 was used.
(§3) In the table below, the data is portrayed as the mean percentage activity of assay duplicates and a standard deviation. These percentage activities were calculated in comparison to DMSO controls. 10 μM SCO-101 reduced the activity of SRPK1 to 6% of the DMSO control.

RIPK2 = RIPK2 (Homo sapiens, UniProt O43353); details: 10 μM SCO-101, mean of assay duplicates, read-out: Kinase activity (percentage of DMSO control)
Source text: as §1, §2, §3

PIM1 = molecular target: T2, PIM1 (Homo sapiens, UniProt P11309); details: 10 μM SCO-101, mean of assay duplicates, read-out: Kinase activity (percentage of DMSO control)
T2 construct: purchased MRC in Dundee (Premier Screen service)
Source text: as §1, §2, §3

MAP4K5 = molecular target: T3, MAP4K5 (Homo sapiens, UniProt Q9Y4K4); details: 10 μM SCO-101, mean of assay duplicates, read-out: Kinase activity (percentage of DMSO control)
T3 construct: purchased MRC Dundee, Premier Screen (contract screening service)
Source text: as §1, §2, §3

BTK = molecular target: T4, BTK (Homo sapiens, UniProt Q06187); details: 10 μM SCO-101, mean of assay duplicates, read-out: Kinase activity (percentage of DMSO control)
T4 construct: MRC in Dundee (screening service)
Source text: as §1, §2, §3

TAO1 = details: 10 μM SCO-101, mean of assay duplicates
Source text: as §1, §2, §3

MELK = molecular target: T5, MELK (Homo sapiens, UniProt Q14680); details: 10 μM SCO-101, mean of assay duplicates, read-out: Kinase activity (percentage of DMSO control)
T5 construct: MRC Dundee (screening service)
Source text: as §1, §2, §3

PIM2 = molecular target: T6, PIM2 (Homo sapiens, UniProt Q9P1W9); details: 10 μM SCO-101, mean of assay duplicates, read-out: Kinase activity (percentage of DMSO control)
T6 construct: purchased MRC in Dundee (Premier Screen service)
Source text: as §1, §2, §3

TLK1 = TLK1 (Homo sapiens, UniProt Q9UKI8); details: 10 μM SCO-101, mean of assay duplicates, read-out: Kinase activity (percentage of DMSO control)
Source text: as §1, §2, §3

HIPK2 = molecular target: T7, HIPK2 (Homo sapiens, UniProt Q9H2X6); details: 10 μM SCO-101, mean of assay duplicates, read-out: Kinase activity (percentage of DMSO control)
T7 construct: purchased MRC in Dundee (Premier Screen service)
Source text: as §1, §2, §3

PINK = molecular target: T8, PINK (Tribolium castaneum, UniProt D6WMX4); details: 10 μM SCO-101, mean of assay duplicates, read-out: Kinase activity (percentage of DMSO control)
T8 construct: purchased MRC Dundee, Premier Screen (contract screening service)
Source text: as §1, §2, §3

MARK4 = molecular target: T9, MARK4 (Homo sapiens, UniProt Q96L34); details: 10 μM SCO-101, mean of assay duplicates, read-out: Kinase activity (percentage of DMSO control)
T9 construct: MRC in Dundee (screening service)
Source text: as §1, §2, §3

EPH-B2 = EPH-B2 (Homo sapiens, UniProt P29323); details: 10 μM SCO-101, mean of assay duplicates, read-out: Kinase activity (percentage of DMSO control)
Source text: as §1, §2, §3

p38b MAPK = p38b MAPK (Homo sapiens, UniProt Q15759); details: 10 μM SCO-101, mean of assay duplicates, read-out: Kinase activity (percentage of DMSO control)
Source text: as §1, §2, §3

PKCγ = molecular target: T10, PKCγ (Homo sapiens, UniProt P05129); details: 10 μM SCO-101, mean of assay duplicates, read-out: Kinase activity (percentage of DMSO control)
T10 construct: MRC Dundee (screening service)
Source text: as §1, §2, §3

CK2 = molecular target: T11, CK2 (Homo sapiens, UniProt P68400); details: 10 μM SCO-101, mean of assay duplicates, read-out: Kinase activity (percentage of DMSO control)
T11 construct: purchased MRC Dundee, Premier Screen (contract screening service)
Source text: as §1, §2, §3

EPH-B4 = molecular target: T12, EPH-B4 (Homo sapiens, UniProt P54760); details: 10 μM SCO-101, mean of assay duplicates, read-out: Kinase activity (percentage of DMSO control)
T12 construct: MRC in Dundee (screening service)
Source text: as §1, §2, §3

ZAP70 = molecular target: T13, ZAP70 (Homo sapiens, UniProt P43403); details: 10 μM SCO-101, mean of assay duplicates, read-out: Kinase activity (percentage of DMSO control)
T13 construct: MRC Dundee (screening service)
Source text: as §1, §2, §3

PDGFRA = molecular target: T14, PDGFRA (Homo sapiens, UniProt P16234); details: 10 μM SCO-101, mean of assay duplicates, read-out: Kinase activity (percentage of DMSO control)
T14 construct: purchased MRC in Dundee (Premier Screen service)
Source text: as §1, §2, §3

PAK6 = PAK6 (Homo sapiens, UniProt Q9NQU5); details: 10 μM SCO-101, mean of assay duplicates, read-out: Kinase activity (percentage of DMSO control)
Source text: as §1, §2, §3

LKB1 = molecular target: T15, LKB1 (Homo sapiens, UniProt Q15831); details: 10 μM SCO-101, mean of assay duplicates, read-out: Kinase activity (percentage of DMSO control)
T15 construct: MRC Dundee (screening service)
Source text: as §1, §2, §3

TESK1 = molecular target: T16, TESK1 (Homo sapiens, UniProt Q15569); details: 10 μM SCO-101, mean of assay duplicates, read-out: Kinase activity (percentage of DMSO control)
T16 construct: purchased MRC in Dundee (Premier Screen service)
Source text: as §1, §2, §3

SYK = molecular target: T17, SYK (Homo sapiens, UniProt P43405); details: 10 μM SCO-101, mean of assay duplicates, read-out: Kinase activity (percentage of DMSO control)
T17 construct: purchased MRC in Dundee (Premier Screen service)
Source text: as §1, §2, §3

NUAK1 = molecular target: T18, NUAK1 (Homo sapiens, UniProt O60285); details: 10 μM SCO-101, mean of assay duplicates, read-out: Kinase activity (percentage of DMSO control)
T18 construct: purchased MRC in Dundee (Premier Screen service)
Source text: as §1, §2, §3

PHK = details: 10 μM SCO-101, mean of assay duplicates
Source text: as §1, §2, §3

EPH-A4 = molecular target: T19, EPH-A4 (Homo sapiens, UniProt P54764); details: 10 μM SCO-101, mean of assay duplicates, read-out: Kinase activity (percentage of DMSO control)
T19 construct: MRC Dundee (screening service)
Source text: as §1, §2, §3

STK33 = molecular target: T20, STK33 (Homo sapiens, UniProt Q9BYT3); details: 10 μM SCO-101, mean of assay duplicates, read-out: Kinase activity (percentage of DMSO control)
T20 construct: MRC Dundee (screening service)
Source text: as §1, §2, §3

JNK1 = molecular target: T21, JNK1 (Homo sapiens, UniProt P45983); details: 10 μM SCO-101, mean of assay duplicates, read-out: Kinase activity (percentage of DMSO control)
T21 construct: purchased MRC Dundee, Premier Screen (contract screening service)
Source text: as §1, §2, §3

MST3 = molecular target: T22, MST3 (Homo sapiens, UniProt Q9Y6E0); details: 10 μM SCO-101, mean of assay duplicates, read-out: Kinase activity (percentage of DMSO control)
T22 construct: purchased MRC in Dundee (Premier Screen service)
Source text: as §1, §2, §3

BRSK1 = molecular target: T23, BRSK1 (Homo sapiens, UniProt Q8TDC3); details: 10 μM SCO-101, mean of assay duplicates, read-out: Kinase activity (percentage of DMSO control)
T23 construct: purchased MRC in Dundee (Premier Screen service)
Source text: as §1, §2, §3

IR = molecular target: T24, IR (Homo sapiens, UniProt P06213); details: 10 μM SCO-101, mean of assay duplicates, read-out: Kinase activity (percentage of DMSO control)
T24 construct: MRC Dundee (screening service)
Source text: as §1, §2, §3

TSSK1 = molecular target: T25, TSSK1 (Homo sapiens, UniProt Q9BXA7); details: 10 μM SCO-101, mean of assay duplicates, read-out: Kinase activity (percentage of DMSO control)
T25 construct: MRC in Dundee (screening service)
Source text: as §1, §2, §3

PDK1 = molecular target: T26, PDK1 (Homo sapiens, UniProt O15530); details: 10 μM SCO-101, mean of assay duplicates, read-out: Kinase activity (percentage of DMSO control)
T26 construct: purchased MRC Dundee, Premier Screen (contract screening service)
Source text: as §1, §2, §3

GSK3b = molecular target: T27, GSK3b (Homo sapiens, UniProt P49841); details: 10 μM SCO-101, mean of assay duplicates, read-out: Kinase activity (percentage of DMSO control)
T27 construct: MRC Dundee (screening service)
Source text: as §1, §2, §3

PRAK = molecular target: T28, PRAK (Homo sapiens, UniProt Q8IW41); details: 10 μM SCO-101, mean of assay duplicates, read-out: Kinase activity (percentage of DMSO control)
T28 construct: purchased MRC in Dundee (Premier Screen service)
Source text: as §1, §2, §3

HIPK1 = molecular target: T29, HIPK1 (Homo sapiens, UniProt Q86Z02); details: 10 μM SCO-101, mean of assay duplicates, read-out: Kinase activity (percentage of DMSO control)
T29 construct: MRC Dundee (screening service)
Source text: as §1, §2, §3

T22 sequence (Q9Y6E0 whole entry, species assumed): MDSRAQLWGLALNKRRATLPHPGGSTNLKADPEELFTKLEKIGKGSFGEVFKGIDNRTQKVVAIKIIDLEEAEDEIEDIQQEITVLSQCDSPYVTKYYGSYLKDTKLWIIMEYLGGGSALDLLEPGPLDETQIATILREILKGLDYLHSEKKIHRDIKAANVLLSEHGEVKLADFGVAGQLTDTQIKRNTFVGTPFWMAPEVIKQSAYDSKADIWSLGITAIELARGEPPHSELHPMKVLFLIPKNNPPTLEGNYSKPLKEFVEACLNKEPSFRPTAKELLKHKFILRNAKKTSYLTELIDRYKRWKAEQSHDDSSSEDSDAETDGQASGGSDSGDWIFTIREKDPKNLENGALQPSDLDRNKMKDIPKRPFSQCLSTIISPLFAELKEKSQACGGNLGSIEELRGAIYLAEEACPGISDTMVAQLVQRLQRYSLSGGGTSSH
Chain of RIPK2 (O43353 whole entry, species assumed): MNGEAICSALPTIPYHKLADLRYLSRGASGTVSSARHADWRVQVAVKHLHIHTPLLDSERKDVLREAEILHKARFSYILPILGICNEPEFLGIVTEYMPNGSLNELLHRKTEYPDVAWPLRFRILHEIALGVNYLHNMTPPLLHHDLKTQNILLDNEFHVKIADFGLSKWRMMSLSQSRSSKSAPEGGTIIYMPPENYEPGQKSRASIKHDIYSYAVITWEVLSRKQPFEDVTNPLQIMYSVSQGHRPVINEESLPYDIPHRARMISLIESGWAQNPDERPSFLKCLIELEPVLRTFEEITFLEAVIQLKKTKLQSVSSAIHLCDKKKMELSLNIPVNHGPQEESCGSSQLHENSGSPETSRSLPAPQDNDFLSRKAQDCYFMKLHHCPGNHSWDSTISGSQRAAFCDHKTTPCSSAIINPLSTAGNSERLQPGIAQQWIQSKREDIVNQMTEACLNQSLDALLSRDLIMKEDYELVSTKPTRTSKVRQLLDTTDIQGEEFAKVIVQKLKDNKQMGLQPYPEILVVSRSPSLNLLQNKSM
T8 sequence (D6WMX4 6-570): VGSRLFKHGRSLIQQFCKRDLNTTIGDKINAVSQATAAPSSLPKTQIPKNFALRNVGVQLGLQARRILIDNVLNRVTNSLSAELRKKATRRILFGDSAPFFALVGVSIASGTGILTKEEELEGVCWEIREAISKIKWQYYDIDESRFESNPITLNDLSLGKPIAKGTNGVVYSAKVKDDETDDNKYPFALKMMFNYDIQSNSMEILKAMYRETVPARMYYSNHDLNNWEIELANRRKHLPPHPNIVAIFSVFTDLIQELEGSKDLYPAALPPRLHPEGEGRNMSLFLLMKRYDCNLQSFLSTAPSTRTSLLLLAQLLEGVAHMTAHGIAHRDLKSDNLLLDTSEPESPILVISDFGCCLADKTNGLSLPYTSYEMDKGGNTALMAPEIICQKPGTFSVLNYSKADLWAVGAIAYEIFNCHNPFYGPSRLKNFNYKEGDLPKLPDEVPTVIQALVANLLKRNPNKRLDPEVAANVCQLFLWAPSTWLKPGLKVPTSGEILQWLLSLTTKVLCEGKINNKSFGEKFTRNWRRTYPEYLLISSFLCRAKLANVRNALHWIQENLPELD
Chain of TLK1 (Q9UKI8 whole entry, species assumed): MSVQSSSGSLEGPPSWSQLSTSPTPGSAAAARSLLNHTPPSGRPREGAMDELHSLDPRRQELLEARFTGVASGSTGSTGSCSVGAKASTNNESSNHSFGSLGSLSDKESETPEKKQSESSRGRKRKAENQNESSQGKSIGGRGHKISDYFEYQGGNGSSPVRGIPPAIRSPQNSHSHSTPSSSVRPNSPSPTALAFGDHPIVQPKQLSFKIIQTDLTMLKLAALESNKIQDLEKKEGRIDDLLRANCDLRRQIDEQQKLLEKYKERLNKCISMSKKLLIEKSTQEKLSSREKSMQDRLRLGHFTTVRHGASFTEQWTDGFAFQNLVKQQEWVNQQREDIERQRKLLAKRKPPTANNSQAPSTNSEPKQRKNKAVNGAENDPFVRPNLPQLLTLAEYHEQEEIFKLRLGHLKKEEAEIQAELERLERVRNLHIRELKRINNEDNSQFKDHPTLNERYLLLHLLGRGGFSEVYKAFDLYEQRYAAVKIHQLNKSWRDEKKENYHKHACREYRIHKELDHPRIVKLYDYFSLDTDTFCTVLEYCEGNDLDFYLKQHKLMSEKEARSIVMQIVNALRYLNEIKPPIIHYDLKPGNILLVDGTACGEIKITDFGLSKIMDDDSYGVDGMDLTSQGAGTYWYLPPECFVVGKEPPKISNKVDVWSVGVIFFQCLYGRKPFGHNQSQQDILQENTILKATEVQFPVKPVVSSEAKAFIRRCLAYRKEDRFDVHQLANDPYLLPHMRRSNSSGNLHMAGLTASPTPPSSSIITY
T25 sequence (Q9BXA7 whole entry, species assumed): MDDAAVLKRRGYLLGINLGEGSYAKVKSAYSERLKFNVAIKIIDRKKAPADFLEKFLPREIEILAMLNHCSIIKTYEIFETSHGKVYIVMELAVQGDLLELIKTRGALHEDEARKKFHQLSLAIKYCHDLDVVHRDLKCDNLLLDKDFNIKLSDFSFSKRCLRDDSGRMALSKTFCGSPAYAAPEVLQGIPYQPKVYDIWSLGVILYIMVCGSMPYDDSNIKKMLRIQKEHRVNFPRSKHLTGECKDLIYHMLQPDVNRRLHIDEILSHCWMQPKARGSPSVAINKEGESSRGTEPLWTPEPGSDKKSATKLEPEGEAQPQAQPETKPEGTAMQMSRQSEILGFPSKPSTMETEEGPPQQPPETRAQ
T5 sequence (Q14680 whole entry, species assumed): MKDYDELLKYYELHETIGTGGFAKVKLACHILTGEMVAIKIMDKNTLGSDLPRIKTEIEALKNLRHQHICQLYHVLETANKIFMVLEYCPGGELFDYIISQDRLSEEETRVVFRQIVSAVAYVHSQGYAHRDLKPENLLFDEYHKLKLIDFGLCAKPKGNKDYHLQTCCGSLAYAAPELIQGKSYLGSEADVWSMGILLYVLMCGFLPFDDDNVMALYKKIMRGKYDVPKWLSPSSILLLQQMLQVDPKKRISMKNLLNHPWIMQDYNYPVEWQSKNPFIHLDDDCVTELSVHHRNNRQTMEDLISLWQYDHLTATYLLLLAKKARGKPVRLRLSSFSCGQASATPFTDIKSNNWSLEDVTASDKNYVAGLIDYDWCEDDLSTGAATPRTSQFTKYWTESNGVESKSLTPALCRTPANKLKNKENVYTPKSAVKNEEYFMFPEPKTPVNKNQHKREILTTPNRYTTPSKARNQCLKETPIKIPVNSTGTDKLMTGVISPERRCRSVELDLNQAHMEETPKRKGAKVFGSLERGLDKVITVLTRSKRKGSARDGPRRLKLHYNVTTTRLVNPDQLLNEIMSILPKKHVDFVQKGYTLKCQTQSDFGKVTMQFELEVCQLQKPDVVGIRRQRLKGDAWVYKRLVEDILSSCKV
T9 sequence (Q96L34 whole entry, species assumed): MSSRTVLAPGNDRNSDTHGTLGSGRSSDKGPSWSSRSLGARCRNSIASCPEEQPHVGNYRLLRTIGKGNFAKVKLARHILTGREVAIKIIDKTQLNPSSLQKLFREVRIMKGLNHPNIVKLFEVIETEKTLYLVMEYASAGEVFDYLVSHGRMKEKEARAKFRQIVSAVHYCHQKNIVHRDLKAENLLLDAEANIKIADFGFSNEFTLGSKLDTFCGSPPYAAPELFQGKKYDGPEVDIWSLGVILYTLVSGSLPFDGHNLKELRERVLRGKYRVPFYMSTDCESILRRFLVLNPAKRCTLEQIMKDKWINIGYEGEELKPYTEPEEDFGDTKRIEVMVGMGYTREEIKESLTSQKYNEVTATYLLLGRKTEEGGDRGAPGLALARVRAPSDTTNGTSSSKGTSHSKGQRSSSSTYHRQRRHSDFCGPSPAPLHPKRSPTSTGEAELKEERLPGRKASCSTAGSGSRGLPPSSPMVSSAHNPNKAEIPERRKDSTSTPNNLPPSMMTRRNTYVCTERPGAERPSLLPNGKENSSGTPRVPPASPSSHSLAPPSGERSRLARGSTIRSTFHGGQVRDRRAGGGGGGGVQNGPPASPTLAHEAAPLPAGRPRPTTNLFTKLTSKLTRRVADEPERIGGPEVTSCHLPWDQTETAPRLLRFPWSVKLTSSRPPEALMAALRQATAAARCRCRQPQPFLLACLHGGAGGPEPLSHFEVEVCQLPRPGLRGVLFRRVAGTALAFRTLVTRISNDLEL
T27 sequence (P49841 whole entry, species assumed): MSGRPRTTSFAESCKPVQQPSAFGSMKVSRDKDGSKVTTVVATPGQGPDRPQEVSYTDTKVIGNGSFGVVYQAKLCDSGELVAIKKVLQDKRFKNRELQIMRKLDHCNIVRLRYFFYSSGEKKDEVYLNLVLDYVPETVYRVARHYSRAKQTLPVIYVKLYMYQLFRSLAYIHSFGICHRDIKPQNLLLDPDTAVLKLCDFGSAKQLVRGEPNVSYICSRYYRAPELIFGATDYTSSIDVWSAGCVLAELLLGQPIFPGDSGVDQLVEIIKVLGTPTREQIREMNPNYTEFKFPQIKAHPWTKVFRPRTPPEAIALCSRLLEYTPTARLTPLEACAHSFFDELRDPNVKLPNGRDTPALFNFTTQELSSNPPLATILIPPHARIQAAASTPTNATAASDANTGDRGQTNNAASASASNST
T2 sequence (P11309 whole entry, species assumed): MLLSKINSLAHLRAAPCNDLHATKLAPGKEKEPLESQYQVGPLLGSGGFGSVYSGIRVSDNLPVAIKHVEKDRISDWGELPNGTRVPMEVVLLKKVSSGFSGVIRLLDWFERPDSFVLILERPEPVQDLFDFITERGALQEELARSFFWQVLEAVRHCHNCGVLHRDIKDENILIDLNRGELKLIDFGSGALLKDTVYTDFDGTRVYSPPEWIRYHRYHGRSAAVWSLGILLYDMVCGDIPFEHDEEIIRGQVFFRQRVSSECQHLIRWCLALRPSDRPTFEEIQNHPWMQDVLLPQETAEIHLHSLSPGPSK

O=C(Nc1cc(C(F)(F)F)cc(C(F)(F)F)c1)Nc1ccc(Br)cc1-c1nnn[nH]1 [SCO-101]
remaining activity at 10 µM (PKBb): 84%
remaining activity at 10 µM (RIPK2): 121%
remaining activity at 10 µM (PIM1): 61%
remaining activity at 10 µM (MAP4K5): 108%
remaining activity at 10 µM (BTK): 78%
Kinase activity (percentage of DMSO control) (TAO1): 116 percentage of DMSO control
remaining activity at 10 µM (MELK): 95%
remaining activity at 10 µM (PIM2): 72%
remaining activity at 10 µM (TLK1): 122%
remaining activity at 10 µM (HIPK2): 139%
remaining activity at 10 µM (PINK): 104%
remaining activity at 10 µM (MARK4): 90%
remaining activity at 10 µM (EPH-B2): 117%
remaining activity at 10 µM (p38b MAPK): 115%
remaining activity at 10 µM (PKCγ): 97%
remaining activity at 10 µM (CK2): 107%
remaining activity at 10 µM (EPH-B4): 86%
remaining activity at 10 µM (ZAP70): 99%
remaining activity at 10 µM (PDGFRA): 62%
remaining activity at 10 µM (PAK6): 123%
remaining activity at 10 µM (LKB1): 96%
remaining activity at 10 µM (TESK1): 54%
remaining activity at 10 µM (SYK): 62%
remaining activity at 10 µM (NUAK1): 49%
Kinase activity (percentage of DMSO control) (PHK): 88 percentage of DMSO control
remaining activity at 10 µM (EPH-A4): 101%
remaining activity at 10 µM (STK33): 100%
remaining activity at 10 µM (JNK1): 105%
remaining activity at 10 µM (MST3): 135%
remaining activity at 10 µM (BRSK1): 124%
remaining activity at 10 µM (IR): 98%
remaining activity at 10 µM (TSSK1): 83%
remaining activity at 10 µM (PDK1): 108%
remaining activity at 10 µM (GSK3b): 99%
remaining activity at 10 µM (PRAK): 69%
remaining activity at 10 µM (HIPK1): 98%
